The text below walks through data of patent publication US20240067632A1, “WEE1 Degrading Compounds and Uses Thereof” (Bristol-Myers Squibb Company, priority 2022, published 2024).

Some results are limits rather than exact numbers.

In test [1] the test system is MKN45 cells. The test can be described thus: MKN45 cell proliferation assay (Cell-Titer-Glo, 120 h). It is filed as cell-based. Conditions: for EC50: Homo sapiens, MKN-45, 120 h, Cell-Titer-Glo, growth inhibition, read-out: MKN45 Cell Prolif. 120 hr (EC50); for MKN45 Cell Prolif. 120 hr (Ymin-Obs): minimal percent of DMSO control observed in the concentrations tested. The method in brief: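 Cells seeded at 400/well onto pre-printed 10-point half-log dilutions (top 1 or 10 uM, 0.1% DMSO final), in triplicate, and grown 120 h at 37 C. Viability by Cell-Titer-Glo luminescence, blank-subtracted and normalised to DMSO; EC50 from four-parameter logistic fit, with observed minimal % of control recorded as Ymin-obs.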

Test [2] concerns the target T1, WEE1 (Homo sapiens, UniProt P30291+Q96SW2).
T1 construct: C-terminal ePL-tagged (DiscoverX, Fremont, CA) full-length WEE1 expression construct; expressed in transfected cells; host or cells: LentiX-HEK293T (Invitrogen), lentiviral transduction; co-expressing GSPT1-GN (G576N, lacking the first 158 amino acids)
The test can be described thus: WEE1-ePL degradation assay (LentiX-WEE1-ePL-GSPT1-ND cells, InCELL Hunter luminescence, 4 h). It is filed as cell-based. The note with it: 293T-LentiX WEE1-ePL cells; for 293T-LentiX WEE1-ePL Degradation 4 hr (Ymin): lower limit of the fit (0 = luciferase inhibitor, Ymax = DMSO control); for DC50: read-out: 293T-LentiX WEE1-ePL Degradation 4 hr (EC50). Put shortly: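 First, compounds were pre-plated as 10-point, 3-fold dilutions (top 1 uM or 10 uM) with DMSO control; next, WEE1-ePL-expressing HEK293T cells were added and held 4 h at 37 °C; finally, InCELL Hunter reagent was applied for 30 min before luminescence reading. A 4PL fit gave EC50 and Ymin.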

Regarding `CCc1ccc2cc(CN3CC[C@H](Oc4ccc5c(c4)CN(C4CCC(=O)NC4=O)C5=O)C3)ccc2n1` (stereo partly drawn) [3-(5-{[(3S)-1-[(2-ethylquinolin-6-yl)methyl]pyrrolidin-3-yl]oxy}-1-oxo-2,3-dihydro-1H-isoindol-2-yl)piperidine-2,6-dione], in test [1], the EC50 was found to be 25.2 nM and the “MKN45 Cell Prolif. 120 hr (Ymin-Obs)” value is recorded as 12.49. Besides, in test [2], the “293T-LentiX WEE1-ePL Degradation 4 hr (Ymin)” value was 27 and the DC50 was determined as 3.02 nM.
`C#Cc1ncc2cc(CN3CC[C@H](Oc4ccc5c(c4)CN(C4CCC(=O)NC4=O)C5=O)C3)ccc2n1` (stereo partly drawn) [3-(5-{[(3S)-1-[(2-ethynylquinazolin-6-yl)methyl]pyrrolidin-3-yl]oxy}-1-oxo-2,3-dihydro-1H-isoindol-2-yl)piperidine-2,6-dione]: in test [1], the EC50 is 70.2 nM and the “MKN45 Cell Prolif. 120 hr (Ymin-Obs)” value turned out to be 28.856. In test [2], the “293T-LentiX WEE1-ePL Degradation 4 hr (Ymin)” value is given as 45 and the DC50 is 16.5 nM.
The like results for `C#Cc1ccc2cc(CN3CC[C@H](Oc4ccc5c(c4)CN(C4CCC(=O)NC4=O)C5=O)C3)ccc2n1` (stereo partly drawn) [3-(5-{[(3S)-1-[(2-ethynylquinolin-6-yl)methyl]pyrrolidin-3-yl]oxy}-1-oxo-2,3-dihydro-1H-isoindol-2-yl)piperidine-2,6-dione] were, in that order, 260 nM, 6.523, 32 and 3.14 nM.
On the same counts, the results for `COc1ncc2cc(CN3CC[C@H](Oc4ccc5c(c4)CN(C4CCC(=O)NC4=O)C5=O)C3)ccc2n1` (stereo partly drawn) [3-(5-{[(3S)-1-[(2-methoxyquinazolin-6-yl)methyl]pyrrolidin-3-yl]oxy}-1-oxo-2,3-dihydro-1H-isoindol-2-yl)piperidine-2,6-dione] are 22.3 nM, 8.47, 37 and 8.05 nM.
On the same counts, the results for `COc1ccc2cc(CN3CC[C@H](Oc4ccc5c(c4)CN(C4CCC(=O)NC4=O)C5=O)C3)ccc2n1` (stereo partly drawn) [3-(5-{[(3S)-1-[(2-methoxyquinolin-6-yl)methyl]pyrrolidin-3-yl]oxy}-1-oxo-2,3-dihydro-1H-isoindol-2-yl)piperidine-2,6-dione] are 45.2 nM, 19.71, 36 and 6.24 nM.
As for `Cn1cc2cc(CN3CC[C@H](Oc4ccc5c(c4)CN(C4CCC(=O)NC4=O)C5=O)C3)ccc2n1` (stereo partly drawn) [3-(5-{[(3S)-1-[(2-methyl-2H-indazol-5-yl)methyl]pyrrolidin-3-yl]oxy}-1-oxo-2,3-dihydro-1H-isoindol-2-yl)piperidine-2,6-dione], in test [1], the EC50 was > 10000 nM and the “MKN45 Cell Prolif. 120 hr (Ymin-Obs)” value is 81.985. In addition, in test [2], the “293T-LentiX WEE1-ePL Degradation 4 hr (Ymin)” value is recorded as 52 and the DC50 was determined as 40.5 nM.
On the same counts, the results for `Cc1cc(CN2CC[C@H](Oc3ccc4c(c3)CN(C3CCC(=O)NC3=O)C4=O)C2)ccn1` (stereo partly drawn) [3-(5-{[(3S)-1-[(2-methylpyridin-4-yl)methyl]pyrrolidin-3-yl]oxy}-1-oxo-2,3-dihydro-1H-isoindol-2-yl)piperidine-2,6-dione] are 663 nM, 37.845, 39.18 and 39.5 nM.
Consider `Cc1ncc2cc(CN3CC[C@H](Oc4ccc5c(c4)CN(C4CCC(=O)NC4=O)C5=O)C3)ccc2n1` (stereo partly drawn) [3-(5-{[(3S)-1-[(2-methylquinazolin-6-yl)methyl]pyrrolidin-3-yl]oxy}-1-oxo-2,3-dihydro-1H-isoindol-2-yl)piperidine-2,6-dione], for which, in test [1], the EC50 was 27.1 nM and the “MKN45 Cell Prolif. 120 hr (Ymin-Obs)” value is 7.995. Further, in test [2], the “293T-LentiX WEE1-ePL Degradation 4 hr (Ymin)” value is 34.5 and the DC50 worked out at 29.6 nM.
For `Cc1ncc2ccc(CN3CC[C@H](Oc4ccc5c(c4)CN(C4CCC(=O)NC4=O)C5=O)C3)cc2n1` (stereo partly drawn) [3-(5-{[(3S)-1-[(2-methylquinazolin-7-yl)methyl]pyrrolidin-3-yl]oxy}-1-oxo-2,3-dihydro-1H-isoindol-2-yl)piperidine-2,6-dione], in test [1], the EC50 worked out at 365 nM and the “MKN45 Cell Prolif. 120 hr (Ymin-Obs)” value came out at 32.41. In test [2], the “293T-LentiX WEE1-ePL Degradation 4 hr (Ymin)” value was determined as 35.02 and the DC50 was 65.5 nM.
The like results for `Cc1nc2ccccc2cc1CN1CC[C@H](Oc2ccc3c(c2)CN(C2CCC(=O)NC2=O)C3=O)C1` (stereo partly drawn) [3-(5-{[(3S)-1-[(2-methylquinolin-3-yl)methyl]pyrrolidin-3-yl]oxy}-1-oxo-2,3-dihydro-1H-isoindol-2-yl)piperidine-2,6-dione] were, in that order, 34.8 nM, 11.29, 34.08 and 8.04 nM.
On the same counts, the results for `Cc1ccc2cc(CN3CC[C@H](Oc4ccc5c(c4)CN(C4CCC(=O)NC4=O)C5=O)C3)ccc2n1` (stereo partly drawn) [3-(5-{[(3S)-1-[(2-methylquinolin-6-yl)methyl]pyrrolidin-3-yl]oxy}-1-oxo-2,3-dihydro-1H-isoindol-2-yl)piperidine-2,6-dione] are 22.3 nM, 13.85, 30.3 and 3.81 nM.
On the same counts, the results for `CC(C)(C)c1ccc2cc(CN3CC[C@H](Oc4ccc5c(c4)CN(C4CCC(=O)NC4=O)C5=O)C3)ccc2n1` (stereo partly drawn) [3-(5-{[(3S)-1-[(2-tert-butylquinolin-6-yl)methyl]pyrrolidin-3-yl]oxy}-1-oxo-2,3-dihydro-1H-isoindol-2-yl)piperidine-2,6-dione] are 9.2 nM, 11.88, 29 and 2.8 nM.
For `O=C1CCC(N2Cc3cc(O[C@H]4CCN(Cc5ccc6nc(N7CC8(COC8)C7)ncc6c5)C4)ccc3C2=O)C(=O)N1` (stereo partly drawn) [3-(5-{[(3S)-1-[(2-{2-oxa-6-azaspiro[3.3]heptan-6-yl}quinazolin-6-yl)methyl]pyrrolidin-3-yl]oxy}-1-oxo-2,3-dihydro-1H-isoindol-2-yl)piperidine-2,6-dione], in test [1], the EC50 stood at 21.8 nM and the “MKN45 Cell Prolif. 120 hr (Ymin-Obs)” value was 15.5. Besides, in test [2], the “293T-LentiX WEE1-ePL Degradation 4 hr (Ymin)” value is recorded as 37 and the DC50 is 35.5 nM.
On the same counts, the results for `O=C1CCC(N2Cc3cc(O[C@H]4CCN(Cc5ccc6nc(N7CC8(COC8)C7)ccc6c5)C4)ccc3C2=O)C(=O)N1` (stereo partly drawn) [3-(5-{[(3S)-1-[(2-{2-oxa-6-azaspiro[3.3]heptan-6-yl}quinolin-6-yl)methyl]pyrrolidin-3-yl]oxy}-1-oxo-2,3-dihydro-1H-isoindol-2-yl)piperidine-2,6-dione] are 10.7 nM, 14.91, 41.5 and 7.76 nM.
For `O=C1CCC(N2Cc3cc(O[C@H]4CCN(Cc5ccc6nc(C78CCOCC7C8)ccc6c5)C4)ccc3C2=O)C(=O)N1` (stereo partly drawn) [3-(5-{[(3S)-1-[(2-{3-oxabicyclo[4.1.0]heptan-6-yl}quinolin-6-yl)methyl]pyrrolidin-3-yl]oxy}-1-oxo-2,3-dihydro-1H-isoindol-2-yl)piperidine-2,6-dione], in test [1], the EC50 came to 2.16 nM and the “MKN45 Cell Prolif. 120 hr (Ymin-Obs)” value is recorded as 9.735. In test [2], the “293T-LentiX WEE1-ePL Degradation 4 hr (Ymin)” value was determined as 33.33 and the DC50 was determined as 3.1 nM.
On the same counts, the results for `O=C1CCC(N2Cc3cc(O[C@H]4CCN(Cc5ccc6nc(N7CCC78COC8)ncc6c5)C4)ccc3C2=O)C(=O)N1` (stereo partly drawn) [3-(5-{[(3S)-1-[(2-{6-oxa-1-azaspiro[3.3]heptan-1-yl}quinazolin-6-yl)methyl]pyrrolidin-3-yl]oxy}-1-oxo-2,3-dihydro-1H-isoindol-2-yl)piperidine-2,6-dione] are 14.2 nM, 14.05, 37 and 8.5 nM.
On the same counts, the results for `O=C1CCC(N2Cc3cc(O[C@H]4CCN(Cc5ccc6nc(N7CCC78COC8)ccc6c5)C4)ccc3C2=O)C(=O)N1` (stereo partly drawn) [3-(5-{[(3S)-1-[(2-{6-oxa-1-azaspiro[3.3]heptan-1-yl}quinolin-6-yl)methyl]pyrrolidin-3-yl]oxy}-1-oxo-2,3-dihydro-1H-isoindol-2-yl)piperidine-2,6-dione] are 3.82 nM, 8.91, 35 and 6.17 nM.
On the same counts, the results for `O=C1CCC(N2Cc3cc(O[C@H]4CCN(Cc5ccc6nc(N7CCC78CCOCC8)ncc6c5)C4)ccc3C2=O)C(=O)N1` (stereo partly drawn) [3-(5-{[(3S)-1-[(2-{7-oxa-1-azaspiro[3.5]nonan-1-yl}quinazolin-6-yl)methyl]pyrrolidin-3-yl]oxy}-1-oxo-2,3-dihydro-1H-isoindol-2-yl)piperidine-2,6-dione] are 12.6 nM, 13.59, 37 and 11.4 nM.
